Reference: patent US8344004B2, “Cyclic pyridyl-N-[1,3,4]-thiadiazol-2-yl-benzene sulfonamides, processes for their preparation and their use as pharmaceuticals” (Sanofi, priority 2007, dated 2013)
Where two headings read alike, the source gives them in different places.

What was measured:
[1] = obese, insulin resistant rhesus monkeys; cited from earlier work
[2] = diabetic animal model; cited from earlier work
human PPARdelta = target: T1, human PPARdelta (Homo sapiens, UniProt Q03181); experiment: Cellular PPARdelta assay (stably transfected HEK luciferase reporter cell line); format: cell-based; conditions: GR-GAL4-humanPPARdelta-LBD
T1 construct: amino acids S139-Y441; expressed in transfected cells; host or cells: HEK cells, stably transfected (pcDNA3, CMV promoter)
T1 sequence (Q03181 139-441): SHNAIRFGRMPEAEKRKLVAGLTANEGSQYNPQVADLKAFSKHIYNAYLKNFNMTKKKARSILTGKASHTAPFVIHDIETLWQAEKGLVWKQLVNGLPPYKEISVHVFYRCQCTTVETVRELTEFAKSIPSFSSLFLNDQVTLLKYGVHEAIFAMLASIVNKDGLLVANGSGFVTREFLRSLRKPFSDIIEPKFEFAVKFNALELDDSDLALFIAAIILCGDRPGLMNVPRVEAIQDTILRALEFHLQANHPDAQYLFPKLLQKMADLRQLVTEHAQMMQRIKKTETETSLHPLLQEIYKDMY
Description: The PPARalphareporter cell line is cultivated to 80% confluence in DMEM (#41965-039, Invitrogen) which is mixed with the following additions: 10% cs-FCS (fetal calf serum; #SH-30068.03, Hyclone), 0.5 mg/ml zeocin (#R250-01, Invitrogen), 0.5 mg/ml G418 (#10131-027, Invitrogen), 1% penicillin-streptomycin solution (#15140-122, Invitrogen) and 2 mM L-glutamine (#25030-024, Invitrogen). The cultivation takes place in standard cell culture bottles (# 353112, Becton Dickinson) in a cell culture incubator at 37° C. in the presence of 5% CO2. The 80%-confluent cells are washed once with 15 ml of PBS (#14190-094, Invitrogen), treated with 3 ml of trypsin solution (#25300-054, Invitrogen) at 37° C. for 2 min, taken up in 5 ml of the DMEM described and counted in a cell counter. After dilution to 500.000 cells/ml, 35,000 cells are seeded in each well of a 96 well microtiter plate with a clear plastic base (#3610, Corning Costar). The plates are incubated in the cell culture incubator at 37° C. and 5% CO2 for 24 h.
PPARalpha agonists to be tested are dissolved in DMSO in a concentration of 10 mM. This stock solution is diluted in DMEM (#41965-039, Invitrogen) which is mixed with 5% cs-FCS (#SH-30068.03, Hyclone), 2 mM L-glutamine (#25030-024, Invitrogen) and the previously described antibiotics (zeocin, G418, penicillin and streptomycin). Test substances are tested in 11 different concentrations in the range from 10 μM to 100 pM.
The medium of the PPARalpha reporter cell line seeded on day 1 is completely removed by aspiration, and the test substances diluted in medium are immediately added to the cells. The dilution and addition of the substances is carried out by a robot (Beckman FX). The final volume of the test substances diluted in medium is 100 μl per well of a 96 well microtiter plate. The DMSO concentration in the assay is less than 0.1% v/v in order to avoid cytotoxic effects of the solvent.
The assay plates are incubated in an incubator at 37° C. and 5% CO2 for 24 h.
The PPARalpha reporter cells treated with the test substances are removed from the incubator, and the medium is aspirated off. The cells are lyzed by pipetting 50 μl of Bright Glo reagent (from Promega) into each well of a 96 well microtiter plate. After incubation at room temperature in the dark for 10 minutes, the microtiter plates are measured in the luminometer (Trilux from Wallac). The measuring time for each well of a microtiter plate is 1 sec.
The raw data from the luminometer are transferred into a Microsoft Excel file. Dose-effect plots and EC50 values of PPAR agonists are calculated using the XL.Fit program as specified by the manufacturer (IDBS).
The potency of substances which bind to human PPARdelta and activate it in an agonistic manner is analyzed using a stably transfected HEK cell line (HEK=human embryo kidney) which is referred to here as PPARdelta reporter cell line. In analogy to the assay described for PPARalpha, the PPARdelta reporter cell line also contains two genetic elements, a luciferase reporter element (pdeltaM-GAL4-Luc-Zeo) and a PPARdelta fusion protein (GR-GAL4-humanPPARdelta-LBD) which mediates expression of the luciferase reporter element depending on a PPARdelta ligand. […] The luciferase which is formed can be detected by means of chemiluminescence via an appropriate substrate. […]

human PPARgamma = target: T2, human PPARgamma (Homo sapiens, UniProt P37231); experiment: Cellular PPARgamma assay (transiently transfected HEK cells, luciferase reporter); format: cell-based; conditions: GAL4-humanPPARgammaLBD
T2 construct: amino acids I152-Y475; expressed in transfected cells; host or cells: HEK cells, transiently transfected with pcDNA3-GAL4-humanPPARgammaLBD
T2 sequence (P37231 182-477 isoform P37231-2 limits assumed): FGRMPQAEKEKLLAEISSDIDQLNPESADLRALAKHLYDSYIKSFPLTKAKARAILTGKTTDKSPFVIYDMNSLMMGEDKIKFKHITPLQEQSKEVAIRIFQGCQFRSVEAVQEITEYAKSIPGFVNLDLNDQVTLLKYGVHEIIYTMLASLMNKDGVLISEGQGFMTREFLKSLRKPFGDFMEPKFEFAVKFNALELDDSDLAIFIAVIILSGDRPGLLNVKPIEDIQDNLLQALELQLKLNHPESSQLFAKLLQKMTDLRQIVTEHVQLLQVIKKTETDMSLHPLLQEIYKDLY
Source text: A transient transfection system is employed to determine the cellular PPARgamma activity of PPAR agonists. It is based on the use of a luciferase reporter plasmid (pGL3basic-5×GAL4-TK) and of a PPARgamma expression plasmid (pcDNA3-GAL4-humanPPARgammaLBD). Both plasmids are transiently transfected into human embryonic kidney cells (HEK cells). There is then expression in these cells of the fusion protein GAL4-humanPPARgammaLBD which binds to the GAL4 binding sites of the reporter plasmid. In the presence of a PPARgamma-active ligand, the activated fusion protein GAL4-humanPPARgammaLBD induces expression of the luciferase reporter gene, which can be detected in the form of a chemiluminescence signal after addition of a luciferase substrate. As a difference from the stably transfected PPARalpha reporter cell line, in the cellular PPARgamma assay the two components (luciferase reporter plasmid and PPARgamma expression plasmid) are transiently transfected into HEK cells because stable and permanent expression of the PPARgamma fusion protein is cytotoxic.
The luciferase reporter plasmid pGL3basic-5×GAL4-TK is based on the vector pGL3basic from Promega. The reporter plasmid is prepared by cloning five binding sites of the yeast transcription factor GAL4 (each binding site with the sequence 5′-CTCGGAGGACAGTACTCCG-3′), together with a 160 bp-long thymidine kinase promoter section (Genbank Accession # AF027128) 5′-upstream into pGL3basic. 3′-downstream of the thymidine kinase promoter is the complete luciferase gene from Photinus pyralis (Genbank Accession # M15077) which is already a constituent of the plasmid pGL3basic used. The cloning and sequencing of the reporter plasmid pGL3basic-5×GAL4-TK took place in analogy to the description in Sambrook J. et. al. (Molecular cloning, Cold Spring Harbor Laboratory Press, 1989).
The PPARgamma expression plasmid pcDNA3-GAL4-humanPPARgammaLBD was prepared by first cloning the cDNA coding for amino acids 1-147 of the yeast transcription factor GAL4 (Genbank Accession # P04386) into the plasmid pcDNA3 (from Invitrogen) 3′-downstream of the cytomegalovirus promoter. Subsequently, the cDNA of the ligand-binding domain (LBD) of the human PPARgamma receptor (amino acids I152-Y475; Accession # g1480099) 3′-downstream of the GAL4 DNA binding domain. Cloning and sequencing of the PPARgamma expression plasmid pcDNA3-GAL4-humanPPARgammaLBD again took place in analogy to the description in Sambrook J. et. al. (Molecular cloning, Cold Spring Harbor Laboratory Press, 1989). Besides the luciferase reporter plasmid pGL3basic-5×GAL4-TK and the PPARgamma expression plasmid pcDNA3-GAL4-humanPPARgammaLBD, also used for the cellular PPARgamma assay are the reference plasmid pRL-CMV (from Promega) and the plasmid pBluescript SK(+) from Stratagene. All four plasmids were prepared using a plasmid preparation kit from Qiagen, which ensured a plasmid quality with a minimal endotoxin content, before transfection into HEK cells.
The activity of PPARgamma agonists is determined in a 4-day assay which is described below. Before the transfection, HEK cells are cultivated in DMEM (#41965-039, Invitrogen) which is mixed with the following additions: 10% FCS (#16000-044, Invitrogen), 1% penicillin-streptomycin solution (#15140-122, Invitrogen) and 2 mM L-glutamine (#25030-024, Invitrogen).
Firstly, solution A, a transfection mixture which contains all four plasmids previously described in addition to DMEM, is prepared. […]

[3] = rhesus and cynomolgus monkeys; cited from earlier work
[4] = two weeks clinical trials in healthy volunteers; cited from earlier work

Q: What does the source list for Cc1cc(SCc2sc(-c3ccc(C(F)(F)F)cc3)nc2C)ccc1OCC(=O)O [GW501516]?
A: HDL-cholesterol [1]: raises; insulin levels [1]: decreases; plasma LDL-cholesterol [1]: decreases; triglycerides [1]: decreases

Q: With CCCc1c(OCCCOc2ccc(OCC(=O)O)cc2)ccc(C(C)=O)c1O [Example L-165041] as the compound, how does the plasma cholesterol [2] read?
A: raises plasma cholesterol

Q: For CC(C)c1nnc(NS(=O)(=O)c2ccc(C3(CNc4ncc(C(F)(F)F)cc4Cl)CCCC3)cc2)s1 [Example 4, 4-{1-[(3-Chloro-5-trifluoromethyl-pyridin-2-ylamino)-methyl]-cyclopentyl}-N-(5-isopropyl-[1,3,4]thiadiazol-2-yl)-benzene-sulfonamide], which EC50 (human PPARdelta) is on record?
A: 220 nM

Q: What about the EC50 (human PPARgamma) of the same compound?
A: 990 nM

Q: With CC(C)c1nnc(NS(=O)(=O)c2cc3c(cc2Cl)CC(Nc2ncc(C(F)(F)F)cc2Cl)C3)s1 (centres unmarked) [Example 8, 6-Chloro-2-(3-chloro-5-trifluoromethyl-pyridin-2-ylamino)-indan-5-sulfonic acid (5-isopropyl-[1,3,4]thiadiazol-2-yl)amide] as the compound, how does the EC50 (human PPARdelta) read?
A: 779 nM

Q: And the EC50 (human PPARgamma)?
A: > 10000 nM

Q: With CC(C)c1nnc(NS(=O)(=O)c2ccc(C3(CNc4ncc(C(F)(F)F)cc4Cl)CCCCC3)cc2)s1 [Example 1, 4-{1-[(3-Chloro-5-trifluoromethyl-pyridin-2-ylamino)-methyl]-cyclohexyl}-N-(5-isopropyl-[1,3,4]thiadiazol-2-yl)-benzenesulfonamide] as the compound, how does the EC50 (human PPARdelta) read?
A: 60 nM

Q: What about the EC50 (human PPARgamma) of the same compound?
A: 26 nM

Q: Which results are given for CC(C)c1nnc(NS(=O)(=O)c2ccc([C@@H]3CCC[C@@H]3Nc3ncc(C(F)(F)F)cc3Cl)cc2)s1 [Example 3, Cis-4-[(1S,2R)-2-(3-chloro-5-trifluoromethyl-pyridin-2-ylamino)-cyclopentyl]-N-(5-isopropyl-[1,3,4]thiadiazol-2-yl)-benzene-sulfonamide]?
A: EC50 (human PPARdelta): 1 nM; EC50 (human PPARgamma): 1800 nM

Q: With CCCc1c(OCCCSc2nnc(SCC(=O)O)s2)ccc(C(C)=O)c1O [YM-16638] as the compound, how does the plasma lipids [3] read?
A: significantly lowers

Q: And the plasma lipids [4]?
A: acts in a similar manner

Q: With CC(C)c1nnc(NS(=O)(=O)c2ccc([C@@H]3CCC[C@H]3Nc3ncc(C(F)(F)F)cc3Cl)cc2)s1 [Example 2, Trans-4-[(1S,2R)-2-(3-chloro-5-trifluoromethyl-pyridin-2-ylamino)-cyclopentyl]-N-(5-isopropyl-[1,3,4]thiadiazol-2-yl)-benzene-sulfonamide] as the compound, how does the EC50 (human PPARdelta) read?
A: 67 nM

Q: What about the EC50 (human PPARgamma) of the same compound?
A: 647 nM
